# “And” between values parts separate entries of the source, which are not always exact repeats. Equal values may be shown once.
# Assays:
# rats = assay: Diuretic activity: urinary sodium excretion over 6 hours after oral administration; assay type: in vivo, rat; conditions: rat, sodium urinary excretion in 6 h vs controls (control = 100), read-out: Diuretic effect %; for response vs control in vivo at 10 mg/kg: dose 10 mg/kg oral; for response vs control in vivo at 20 mg/kg: dose 20 mg/kg oral
# Experimental: The first series of tests was carried out to rats orally administered with distilled water (25 ml/kg) containing the product under test, previously suspended in Tween 80 (1% v/v with respect to water). Urina of the 6 hours following the treatment was collected in order to measure the sodium concentration, by means of atomic absorption. The ratio of the meq/100 g of body weight of the treated animals to the corresponding ratio of the meq/100 g of body weight of the control animals (treated with the sole vehicle) was calculated, in order to determine the dose of the test compound doubling or trebling or anyway increasing the sodium excretion.
# rat [1] = assay: Excreted urinary electrolytes after oral administration, with a second water load after 0-3 h; assay type: in vivo
# Experimental: (§1) The compounds were administered by the oral route, under the same conditions as described in the previous test, but the animals, after the O-3 hours interval, were treated with further 25 ml/kg of distilled water, by intubation.
# in vivo = conditions: rat
# rat [2] = assay: Excreted urinary volumes after oral administration, with a second water load after 0-3 h; assay type: in vivo
# Experimental: as §1
smiles,measurement,setting,value
"Cc1cn2c(C=NNC(=O)CN(C)C)c(-c3ccccc3)nc2s1 [Example 8, N,N-Dimethylaminoacetyl-[[2-methyl-6-phenyl-imida-zo[2,1-b]thiazole-5-yl]methylene]hydrazide]",response vs control in vivo at 1 mg/kg,rats; dose 1 mg/kg oral,300%
same,"EXCRETED URINARY ELECTROLYTES WITH RESPECT TO BODY WEIGHT, K^+","rat [1]; 10 mg/kg, 0-3 h",0.66 mEq/kg
same,"EXCRETED URINARY ELECTROLYTES WITH RESPECT TO BODY WEIGHT, Na^+","rat [1]; 10 mg/kg, 0-3 h",2.24 mEq/kg
same,"EXCRETED URINARY ELECTROLYTES WITH RESPECT TO BODY WEIGHT, K^+","rat [1]; 10 mg/kg, 0-6 h",0.99 mEq/kg
same,"EXCRETED URINARY ELECTROLYTES WITH RESPECT TO BODY WEIGHT, Na^+","rat [1]; 10 mg/kg, 0-6 h",2.39 mEq/kg
same,"EXCRETED URINARY ELECTROLYTES WITH RESPECT TO BODY WEIGHT, K^+","rat [1]; 10 mg/kg, 3-6 h",0.33 mEq/kg
same,"EXCRETED URINARY ELECTROLYTES WITH RESPECT TO BODY WEIGHT, Na^+","rat [1]; 10 mg/kg, 3-6 h",0.15 mEq/kg
same,"EXCRETED URINARY ELECTROLYTES WITH RESPECT TO BODY WEIGHT, K^+","rat [1]; head prints 10 mg/kg, 0-3 h",0.48 mEq/kg
same,"EXCRETED URINARY ELECTROLYTES WITH RESPECT TO BODY WEIGHT, Na^+","rat [1]; head prints 10 mg/kg, 0-3 h",1.32 mEq/kg
same,"EXCRETED URINARY ELECTROLYTES WITH RESPECT TO BODY WEIGHT, K^+","rat [1]; head prints 10 mg/kg, 0-6 h",0.83 mEq/kg
same,"EXCRETED URINARY ELECTROLYTES WITH RESPECT TO BODY WEIGHT, Na^+","rat [1]; head prints 10 mg/kg, 0-6 h",1.38 mEq/kg
same,"EXCRETED URINARY ELECTROLYTES WITH RESPECT TO BODY WEIGHT, K^+","rat [1]; head prints 10 mg/kg, 3-6 h",0.35 mEq/kg
same,"EXCRETED URINARY ELECTROLYTES WITH RESPECT TO BODY WEIGHT, Na^+","rat [1]; head prints 10 mg/kg, 3-6 h",0.056 mEq/kg
same,LD50,in vivo; ip,> 3000 mg/kg
same,LD50,in vivo; po,> 3000 mg/kg
same,EXCRETED URINARY VOLUMES WITH RESPECT TO BODY WEIGHT,"rat [2]; 2.5 mg/kg, 0-3 h",0.0265 L/kg
same,EXCRETED URINARY VOLUMES WITH RESPECT TO BODY WEIGHT,"rat [2]; 2.5 mg/kg, 0-6 h",0.0432 L/kg
same,EXCRETED URINARY VOLUMES WITH RESPECT TO BODY WEIGHT,"rat [2]; 2.5 mg/kg, 3-6 h",0.0167 L/kg
same,EXCRETED URINARY VOLUMES WITH RESPECT TO BODY WEIGHT,"rat [2]; 10 mg/kg, 0-3 h",0.0345 L/kg
same,EXCRETED URINARY VOLUMES WITH RESPECT TO BODY WEIGHT,"rat [2]; 10 mg/kg, 0-6 h",0.0509 L/kg
same,EXCRETED URINARY VOLUMES WITH RESPECT TO BODY WEIGHT,"rat [2]; 10 mg/kg, 3-6 h",0.0164 L/kg
CN(C)CC(=O)NN=Cc1c(-c2ccccc2)nc2n1CCS2 [Example 9],response vs control in vivo at 10 mg/kg,rats,230%
same,LD50,in vivo; ip,> 1000 mg/kg
same,LD50,in vivo; po,> 3000 mg/kg
Cc1nc2n(c1C=NNC(=O)CN(C)C)CCS2 [Example 10],LD50,in vivo; ip,> 1000 mg/kg
same,LD50,in vivo; po,> 1000 mg/kg
CN(C)CC(=O)NN=Cc1c(-c2ccc(Cl)cc2)nc2n1CCS2 [Example 11],response vs control in vivo at 20 mg/kg,rats,230%
same,LD50,in vivo; ip,~600 mg/kg
same,LD50,in vivo; po,~800 mg/kg
Cc1ccc(-c2nc3n(c2C=NNC(=O)CN(C)C)CCS3)cc1 [Example 12],response vs control in vivo at 20 mg/kg,rats,120%
same,LD50,in vivo; ip,~600 mg/kg
same,LD50,in vivo; po,~800 mg/kg
NCC(=O)NN=Cc1c(-c2ccccc2)nc2sccn12 [Example 14],response vs control in vivo at 20 mg/kg,rats,130%
same,LD50,in vivo; po,> 1000 mg/kg
"NS(=O)(=O)c1cc(C(=O)O)c(NCc2ccco2)cc1Cl [Furosemide, furosemide, reference compound]",response vs control in vivo at 10 mg/kg,rats,490%
same,"EXCRETED URINARY ELECTROLYTES WITH RESPECT TO BODY WEIGHT, K^+","rat [1]; 10 mg/kg, 0-3 h",0.87 mEq/kg and 1.02 mEq/kg
same,"EXCRETED URINARY ELECTROLYTES WITH RESPECT TO BODY WEIGHT, Na^+","rat [1]; 10 mg/kg, 0-3 h",1.30 mEq/kg and 1.82 mEq/kg
same,"EXCRETED URINARY ELECTROLYTES WITH RESPECT TO BODY WEIGHT, K^+","rat [1]; 10 mg/kg, 0-6 h",1.15 mEq/kg and 1.11 mEq/kg
same,"EXCRETED URINARY ELECTROLYTES WITH RESPECT TO BODY WEIGHT, Na^+","rat [1]; 10 mg/kg, 0-6 h",1.38 mEq/kg and 1.85 mEq/kg
same,"EXCRETED URINARY ELECTROLYTES WITH RESPECT TO BODY WEIGHT, K^+","rat [1]; 10 mg/kg, 3-6 h",0.24 mEq/kg and 0.13 mEq/kg
same,EXCRETED URINARY VOLUMES WITH RESPECT TO BODY WEIGHT,"rat [2]; 10 mg/kg, 0-3 h",0.0365 L/kg and 0.0265 L/kg
same,EXCRETED URINARY VOLUMES WITH RESPECT TO BODY WEIGHT,"rat [2]; 10 mg/kg, 0-6 h",0.0451 L/kg and 0.0472 L/kg
same,EXCRETED URINARY VOLUMES WITH RESPECT TO BODY WEIGHT,"rat [2]; 10 mg/kg, 3-6 h",0.0107 L/kg and 0.0186 L/kg
"NS(=O)(=O)c1cc2c(cc1C(F)(F)F)NCNS2(=O)=O [Hydroflumethia-zide, hydroflumethiazide, reference compound]",response vs control in vivo at 5 mg/kg,rats; dose 5 mg/kg oral,260%
same,LD50,in vivo; iv,750 mg/kg
"CC(=O)S[C@@H]1CC2=CC(=O)CC[C@]2(C)[C@H]2CC[C@@]3(C)[C@@H](CC[C@@]34CCC(=O)O4)[C@H]12 [Spironolactone, spironolactone, reference compound]",response vs control in vivo at 20 mg/kg,rats,360%
